The record followed here is patent US20120190580A1, “TREATMENT OF PATIENTS AFTER STENT IMPLANTATION OR BALLOON DILATATION AND DRUG ELUTING STENTS” (MAX-PLANCK-GESELLSCHAFT ZUR FORDERUNG DER WISSENSCHAFTEN …, priority 2009, published 2012).

The assay has as its system mesenteric arteries. The experiment in a line: Myograph: contractile responses to phenylephrine of mesenteric arteries from losartan-treated mice. It counts as in vivo, mouse. From the text: A 129S7AB2.2 genomic BAC clone (bMQ-446B20; Sanger) was used to generate the targeting vector. Recombination in SW102 cell was employed to replace the miR-143 to miR-145 genomic region by a galK cassette (45) that was amplified by the primers flanking premiR-143 to pre-miR-145 ([…] GCggcgcgcctcagcactgtcctgctcctt; […] ACggcgcgcctgttgacaattaatcatcggca). The genomic sequence was inserted via gap repair into a pKO targeting vector containing a DTA expression cassette and 450 bp homology arms for BAC recombination resulting in a vector containing 6.5 kb of sequence 5′ of miR-143 and 5.5 kb 3′ of miR-145 from genomic sequence […] to […]. The AscI restriction sites flanking the galK cassette were used to replace the galK by a floxed IRESIacZ-NeoR cassette. The vector was electroporated into MPI II ES cells (46) and recombinant clones were identified. Recombinant ES cells were injected into blastocysts and transferred to pseudopregnant mice. Chimeric animals were backcrossed to C57BL/6 mice. Heterozygous animals were used to obtain WT and KO littermates. ES cells and mice were genotyped using an EcoRV restriction digest and a 5′ outside probe amplified from genomic DNA using oligonucleotides ([…]; […]). For chronic ACE or AT1 inhibition drinking water of mice was supplemented with 600 μg/ml captopril (Sigma#C-8856) and 100 µg/ml losartan (Fluka#61188) for at least 3 weeks. The experiments were performed in accordance with German legislation on protection of animals and were approved by the local governmental animal care committee (Regierungspraesidium Darmstadt).
Isolated segments of femoral and mesenteric arteries were examined in an isometric microvessel myograph as described previously (52). Mounted vessels were stimulated with 80 mM K+, 30 nM angiotensin II or increasing concentrations of phenylephrine (100 nM to 10 μM). The pCa-force relationships (13, 14) were obtained in permeabilized mouse femoral artery segments. In brief, arteries were permeabilized for 30 minutes using 0.5% Triton X-100 in relaxation solution. The latter consisted of (in mM): EGTA 1, Pipes 30, Na2ATP 5.16, MgCl2 7.31, sodium creatine phosphate 10 and potassium gluconate 74.1. For contraction curves the buffer was supplemented with 160 U/ml calmodulin and 100 U/ml creatine phosphokinase. The concentration of free Ca2+ ions was calculated as described previously (53).

`CCCCc1nc(Cl)c(CO)n1Cc1ccc(-c2ccccc2-c2nn[nH]n2)cc1` [losartan]: the “phenylephrine induced contraction relative to K+ force” value (KO mice, losartan for 3 weeks) is given as 96 % of the K+ force. Moreover, the “enhancement of phenylephrine induced contraction” value reads like this: (KO mice, losartan for 3 weeks, 3 μM phenylephrine) 214%; (KO mice, losartan for 3 weeks, 10 μM phenylephrine) 57%. Further, under “WT mice, losartan”, the phenylephrine-induced vasoconstriction entry is recorded as “did not affect”. Moreover, under “arterial rings from KO animals, losartan-treated vs. KO untreated”, the “contractility on phenylephrine stimulation” value is given as “significant enhancement”.
